Assay results as given in patent US20060160773A1, “Combretastatin derivatives with cytotoxic action” (priority 2003, published 2006).
Where two headings read alike, the source gives them in different places. Marks after values point to notes of the source that are not given here.

Key:
[1] = system: HT29 human colon adenocarcinoma line; assay: Cytotoxicity test (sulforodamine B), HT29; type: cell-based
Experimental: (§1) The cytotoxic effect of our derivatives was evaluated in series of human and murine cell lines.
(§2) The M109 murine lung cancer line, the HT29 human colon adenocarcinoma line, the A2780 human ovarian carcinoma line, obtained from the Milan Tumour Institute, were cultured in RPMI containing 10% FBS and antibiotics.
(§3) For the cytotoxicity test the cells were seeded at variable densities according to cell type in 96-well plates in normal culture medium (200 μl/well) and incubated for 24 hours at 37° C. On the next day, the study substances were added at scalar concentrations and the cells were incubated for a further 24 hours at 37° C. in a humidified atmosphere containing 5% CO2. At the end of the incubation period the medium containing the substances was removed and three washings with PBS were performed. At the end of the washings 200 μl/well of fresh medium were added and the plates were incubated at 37° C. for a further 48 hours. At the end of this incubation period the culture medium was removed by overturning the plates and 200 μl/well of PBS and 50 μl of 80% cold trichloroacetic acid (TCA) were added. The plates were then incubated in ice. After 1 h the TCA was removed, the plates were washed three times by immersion in distilled water and dried first on blotting paper and then in the oven. 200 μl of 0.4% sulforodamine B in 1% acetic acid were then added to all wells. The plates were incubated at room temperature for a further 30 minutes. The sulforodamine B was removed by overturning, the plates were washed three times by immersion in 1% acetic acid, and then dried first on blotting paper and then in the oven. 200 μl of Tris base 10 mM were then added to all wells and the plates were placed under stirring for at least 20 min. The optical density was measured by spectrophotometric readout at 540 nm.
(§4) In the same table are reported the IC50 of ST2897, ST2898 and ST2899 on BMEC.

[2] = system: Human umbilical vein endothelial cells (HUVEC); assay: Cytotoxicity test (sulforodamine B), HUVEC; type: cell-based; conditions: read-out: IC50 ± SE
Experimental: as §1
Human umbilical vein endothelial cells (HUVEC), from the BioWhittaker company, were maintained in EGM-2 culture medium (BioWhittaker).
as §3, §4

[3] = system: Bovine microcirculatory endothelial cells (BMEC); assay: Cytotoxicity test (sulforodamine B), BMEC; type: cell-based; conditions: read-out: IC50 ± SE
Experimental: as §1
Bovine microcirculatory endothelial cells (BMEC), isolated from bovine adrenal glands, were maintained in culture in DMEM containing 20% FBS, 50 μg/ml of bovine brain extract (BBE), 50 units/ml of heparin (SIGMA), 100 units/ml of gentami-cin (SIGMA) and 10 mg/ml of L-glutamine (Hyclone). EA-hy926, an immortalised hybridoma of HUVEC and adenocarcinoma cells, obtained from the University of Bari Department of Biomedical Sciences and Human Oncology, was cultured in DMEM added with 10% FBS and gentamicin.
as §3, §4

[4] = system: A2780 human ovarian carcinoma line; assay: Cytotoxicity test (sulforodamine B), A2780; type: cell-based
Experimental: as §1, §2, §3, §4

[5] = system: B16/BL6 murine melanoma line; assay: Cytotoxicity test (sulforodamine B), B16/BL6; type: cell-based
Experimental: as §1
The B16/BL6 murine melanoma line, obtained from the M. Negri Institute in Milan, was cultured in DMEM containing 10% FBS and antibiotics.
as §3, §4

[6] = system: MCF-7 human breast carcinoma; assay: Cytotoxicity test (sulforodamine B), MCF-7; type: cell-based
Experimental: as §1
(§5) The following cell lines, purchased from ATCC, were cultured according to the manufacturer's instructions: MeWo human melanoma, NCI-H460 human lung cancer, LoVo human colon adenocarcinoma, PC3 human prostate carcinoma, MES-SA human uterine sarcoma, HCT 116 human colorectal carcinoma, MCF-7 human breast carcinoma.
as §3, §4

MeWo human melanoma = assay: Cytotoxicity test (sulforodamine B), MeWo; type: cell-based; conditions: read-out: IC50 ± SE
Experimental: as §1, §5, §3, §4

[7] = system: NCI-H460 human lung cancer; assay: Cytotoxicity test (sulforodamine B), NCI-H460; type: cell-based
Experimental: as §1, §5, §3, §4

[8] = system: human NCI-H460 lung cancer cells; assay: Anticancer activity in animal model of human lung carcinoma (NCI-H460 s.c. in nude CD1 mice); type: in vivo
Experimental: The anticancer activity of ST2495 and ST2496 was assayed in an animal model of human lung carcinoma.
In this model, human NCI-H460 lung cancer cells at a density of 3×10^6 cells/mouse were injected subcutaneously in the right flank of nude CD1 mice. […]
All the animals were weighed during the course of the treatment to adjust the drug administration volume and to record the percentage loss of body weight (% BWL).
Tumour growth was assessed by measuring the shorter diameter (width) and the longer diameter (length) of each tumour twice a week with a Vernier caliper, and the anticancer activity was evaluated in terms of percentage inhibition of tumour growth. The tumour volume was calculated using the following formula: tumour volume (TV) in mm^3=[length (mm)×width (mm)^2]/2. The percentage inhibition (% TVI) was calculated according to the following equation: 100−[(mean tumour volume of the treated group/mean tumour volume of the control group)×100]. A value of P≦0.05 was regarded as statistically significant.

[9] = system: MES-SA human uterine sarcoma; assay: Cytotoxicity test (sulforodamine B), MES-SA; type: cell-based; conditions: read-out: IC50 ± SE
Experimental: as §1, §5, §3, §4

[10] = system: HCT 116 human colorectal carcinoma; assay: Cytotoxicity test (sulforodamine B), HCT 116; type: cell-based
Experimental: as §1, §5, §3, §4

[11] = Evaluation of cardiovascular parameters (blood pressure, heart rate) in anaesthetised rats; type: in vivo; conditions: 20 or 40 mg/kg injected in the jugular vein, anaesthetised Wistar rats (FIG. 1)
Experimental: Combretastatin A4, its prodrug ST2494 and our water soluble selected compounds ST2495 and ST2496, diluted at the doses of 20 or 40 mg/kg in saline solution or for combretastatin A4 in 5% DMSO, were injected in the jugular vein of Wistar rats anaesthetised with 55 mg/kg Nembutal. The parameter considered were blood pressure and heart rate.

[12] = 24 h exposure, 48 h recovery, SRB
[13] = i.p. 30 mg/kg twice/day, qd5x/w, day 4 to day 22
[14] = i.p. 30 mg/kg, qd5x/w once a day, day 4 to day 22
[15] = i.v. 60 mg/kg, q2dx6, day 4 to day 16
[16] = i.v. 90 mg/kg, q2dx6, day 4 to day 16
[17] = p.o. 30 mg/kg twice/day, qd5x/w, day 4 to day 22
[18] = p.o. 60 mg/kg twice/day, qd5x/w, day 4 to day 22
[19] = i.v. 60 mg/kg, q2dx6, day 5 to day 17
[20] = i.v. 90 mg/kg, q2dx6, day 5 to day 17
[21] = p.o. 30 mg/kg, qdx5/w, day 4 to day 14

Compound “Disodium 6[(Z)-2-(3,4,5-trimethoxyphenyl)ethenyl]-1-benzo-thiophen-4-ol-4-O-phospohate [ST2495]” has an IC50 ([1]; HT29, 24 h exposure, 48 h recovery, SRB, read-out: IC50 ± SE) of over 10000 nM, an IC50 [2, 12] of 83 ± 2.06 nM and an IC50 ([3]; BMEC, 24 h exposure, 48 h recovery, SRB) of 640 ± 40 nM. It also gave an IC50 ([4]; A2780, 24 h exposure, 48 h recovery, SRB, read-out: IC50 ± SE) of 500 ± 20 nM, an IC50 ([5]; B16/BL6, 24 h exposure, 48 h recovery, SRB, read-out: IC50 ± SE) of over 10000 nM and an IC50 ([6]; MCF-7, 24 h exposure, 48 h recovery, SRB, read-out: IC50 ± SE) of 693 ± 21 nM. For the same compound, the IC50 (MeWo human melanoma; [12]) was 830 ± 0.13 nM, the IC50 ([7]; NCI-H460, 24 h exposure, 48 h recovery, SRB, read-out: IC50 ± SE) was 620 ± 65 nM and the “anticancer activity (summary in words)” value ([8]; NCI-H460 in nude mice, i.p., p.o. and i.v. routes) was “proved active with all the administration routes”. The “% BWL” value [8, 13] was 0%, the Mortality [8, 13] was 0/8 and the “% TVI” value ([8]; i.p. 30 mg/kg twice/day, qd5x/w, day 15 after tumor inoculation) was 75** %. For the same compound, the “% TVI” value ([8]; i.p. 30 mg/kg twice/day, qd5x/w, day 22 after tumor inoculation) was 72** %, the “% BWL” value [8, 14] was 4% and the Mortality [8, 14] was 0/8. The “% TVI” value ([8]; i.p. 30 mg/kg, qd5x/w once a day, day 15 after tumor inoculation) was 32** %, the “% TVI” value ([8]; i.p. 30 mg/kg, qd5x/w once a day, day 22 after tumor inoculation) was 38* % and the “% BWL” value [8, 15] was 1%. The Mortality [8, 15] was 0/8, the “% TVI” value ([8]; i.v. 60 mg/kg, q2dx6 day 4 to 16, day 15 after tumor inoculation) was 84** % and the “% TVI” value ([8]; i.v. 60 mg/kg, q2dx6 day 4 to 16, day 22 after tumor inoculation) was 73** %. The “% BWL” value [8, 16] was 0%, the Mortality [8, 16] was 0/8 and the “% TVI” value ([8]; i.v. 90 mg/kg, q2dx6 day 4 to 16, day 15 after tumor inoculation) was 81** %. The “% TVI” value ([8]; i.v. 90 mg/kg, q2dx6 day 4 to 16, day 22 after tumor inoculation) was 62** %, the “% BWL” value [8, 17] was 0% and the Mortality [8, 17] was 0/8. For the same compound, the “% TVI” value ([8]; p.o. 30 mg/kg twice/day, qd5x/w, day 15 after tumor inoculation) was 42** %, the “% TVI” value ([8]; p.o. 30 mg/kg twice/day, qd5x/w, day 22 after tumor inoculation) was 30* % and the “% BWL” value [8, 18] was 1%. The Mortality [8, 18] was 0/8, the “% TVI” value ([8]; p.o. 60 mg/kg twice/day, qd5x/w, day 15 after tumor inoculation) was 79** % and the “% TVI” value ([8]; p.o. 60 mg/kg twice/day, qd5x/w, day 22 after tumor inoculation) was 67** %. The IC50 ([9]; MESSA, 24 h exposure, 48 h recovery, SRB) was 1420 ± 49 nM and the IC50 ([10]; HCT-116, 24 h exposure, 48 h recovery, SRB, read-out: IC50 ± SE) was 3000 ± 102 nM.

With `COc1cc(/C=C\c2cc(OP(=O)(O)O)c3ccoc3c2)cc(OC)c1OC` [ST2496, Disodium 6[(Z)-2-(3,4,5-trimethoxyphenyl)ethenyl]-1-benzo-furan-4-ol 4-O-phosphate] the blood pressure [11] was “did not show significant effect”, the heart rate [11] was “did not show significant effect” and the IC50 ([1]; Homo sapiens, HT-29, read-out: IC50 ± SE) was 3900 ± 70 nM. It also gave an IC50 ([2]; Homo sapiens) of 85 ± 1.2 nM, an IC50 ([3]; Bos taurus, Endothelial cell) of 340 ± 16 nM and an IC50 ([4]; Homo sapiens, A2780, read-out: IC50 ± SE) of 260 ± 6 nM. For the same compound, the IC50 ([5]; Mus musculus, B16-BL6, read-out: IC50 ± SE) was 4140 ± 490 nM, the IC50 ([6]; Homo sapiens, MCF7, read-out: IC50 ± SE) was 646 ± 29 nM and the IC50 (MeWo human melanoma; Homo sapiens) was 820 ± 7.7 nM. For the same compound, the IC50 ([7]; Homo sapiens, NCI-H460, read-out: IC50 ± SE) was 780 ± 3.4 nM, the “% BWL” value [8, 19] was 1% and the Mortality [8, 19] was 0/8. For the same compound, the “% TVI” value ([8]; i.v. 60 mg/kg, q2dx6 day 5 to 17, day 14 after tumor inoculation) was 48** %, the “% TVI” value ([8]; i.v. 60 mg/kg, q2dx6 day 5 to 17, day 21 after tumor inoculation) was 53** % and the “% BWL” value [8, 20] was 1%. The Mortality [8, 20] was 0/8, the “% TVI” value ([8]; i.v. 90 mg/kg, q2dx6 day 5 to 17, day 14 after tumor inoculation) was 57*** % and the “% TVI” value ([8]; i.v. 90 mg/kg, q2dx6 day 5 to 17, day 21 after tumor inoculation) was 56** %. For the same compound, the “% TVI” value ([8]; p.o. 30 mg/kg, qdx5/w day 4 to 14, day 14 after tumor inoculation) was 48* %, the “% TVI” value ([8]; p.o. 30 mg/kg, qdx5/w day 4 to 14, day 21 after tumor inoculation) was 46* % and the “% BWL” value [8, 21] was 1%. For the same compound, the Mortality [8, 21] was 0/8, the IC50 ([9]; Homo sapiens, MES-SA) was 500 ± 50 nM and the IC50 ([10]; Homo sapiens, HCT-116, read-out: IC50 ± SE) was 1680 ± 70 nM.

In the case of `COc1ccc(/C=C\c2cc(OC)c3occc3c2)cc1O` [ST2898, Cis-2-Methoxy-5-[2-(7-methoxy-benzofuran-5-yl)-vinyl]-phenol], the IC50 ([3]; Bos taurus, Endothelial cell) is reported as 35 ± 0.3 nM.

In the case of `COc1ccc(/C=C\c2cc(OC)c3ccsc3c2)cc1O` [ST2899, Cis-2-Methoxy-5-[2-(4-methoxy-benzo[b]thiophen-6-yl)-vinyl]-phenol], the IC50 ([3]; Bos taurus, Endothelial cell) is reported as under 40 nM.

For `COc1ccc(/C=C\c2cc(OC)c3ccoc3c2)cc1O` [ST2897, Cis-2-Methoxy-5-[2-(4-methoxy-benzofuran-6-yl)-vinyl]-phenol], the IC50 ([3]; Bos taurus, Endothelial cell) was 35 ± 1.8 nM.
